Common to all, as to type: cell-based
In one test the target is T1, human NMUR1 receptor (Homo sapiens, UniProt Q9HB89).
T1 construct: expressed in transfected cells; host or cells: CHO-K1
T1 sequence (Q9HB89 1-426): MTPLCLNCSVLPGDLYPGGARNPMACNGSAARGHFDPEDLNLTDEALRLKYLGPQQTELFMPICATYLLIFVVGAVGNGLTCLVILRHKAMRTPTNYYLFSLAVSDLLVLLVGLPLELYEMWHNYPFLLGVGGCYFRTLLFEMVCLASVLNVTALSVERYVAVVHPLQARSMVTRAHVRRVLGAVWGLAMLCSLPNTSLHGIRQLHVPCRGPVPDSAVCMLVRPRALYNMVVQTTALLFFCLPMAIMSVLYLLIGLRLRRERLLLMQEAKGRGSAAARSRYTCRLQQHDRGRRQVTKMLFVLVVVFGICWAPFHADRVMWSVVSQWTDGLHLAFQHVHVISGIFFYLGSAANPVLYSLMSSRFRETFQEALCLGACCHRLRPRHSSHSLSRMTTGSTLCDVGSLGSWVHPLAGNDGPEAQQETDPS
Put plainly: IP1 Gq HTRF assay, activation of human NMUR1 in buffer. The note with it: CHO-K1 cells expressing human NMUR1, stimulation buffer with 0.1% BSA; read-out: EC50 (hNMUR1) buffer. The text has this: Example 3: IP1 Gq HTRF Assay Activation of Human NMUR2 or Human NMUR1 in Buffer Application of the Homogenous Time Resolved Fluorescence (HTRF) technology optimized for Gq coupled receptors has been described in detail in the Cisbio IP-One Gq kit manual. In brief, a FRET signal (FRET: fluorescence resonance energy transfer) is generated between the donor label of an IP-One antibody (anti-IP1-Tb) and the acceptor label of a tagged IP-One (IP1-d2). Agonism of a Gq coupled receptor increases intracellular IP-One, which competes with labeled IP-One and leads to a reduction of the FRET signal. Frozen stocks of CHO-K1 cells stably expressing the human NMUR1 or NMUR2 receptor were thawed and 5000 cells were seeded in culture medium (HAM'S F12, 10% FCS) into each well of a 384-well assay plate. After seeding, cells were incubated for 24 h in a humidified incubator at 37° C. and 5% CO2. Next, cells were washed once with 50 μL of wash buffer (20 mM Hepes, 1×HBSS, pH 7.4), followed by addition of either 10 μL of stimulation buffer (20 mM Hepes, 1×HBSS, 50 mM LiCl, 0.1% BSA, pH 7.4). Peptide agonists to be tested were dissolved in 100% DMSO and pre-diluted in stimulation buffer at a suitable concentration range for an 8 pt dose-response curve. 5 μL of peptide pre-dilution were then added to each well, followed by another 5 μL of stimulation buffer to give a final concentration of 1% DMSO. Samples were subsequently incubated for 1 hour in a humidified incubator at 37° C. After addition of 5 μL each of IP1-d2 and anti-IP1-Tb, samples were incubated for another 1 hour at room temperature and FRET signals (ratio 665 nm/620 nm) were measured. EC50 values were calculated by nonlinear regression using a 4-parameter sigmoidal curve fit.

Test [1] addresses T2, human NMUR2 receptor (Homo sapiens, UniProt Q9GZQ4). Description: IP1 Gq HTRF assay, activation of human NMUR2 in buffer. On the set-up: expressed in transfected cells; host or cells: CHO-K1. The note with it: CHO-K1 cells expressing human NMUR2, stimulation buffer with 0.1% BSA; read-out: EC50 (hNMUR2) buffer. The essentials:
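IP-One HTRF competition (665/620 nm ratio) read after 1 h agonist exposure at 37 °C in pH 7.4 HEPES/HBSS stimulation buffer containing 50 mM LiCl, 0.1% BSA, 1% DMSO. Cells: CHO-K1 stably expressing human NMUR2 or NMUR1. EC50 by 4-parameter nonlinear regression of 8-point curves.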
For orientation: TR-FRET usually uses a lanthanide donor and a delayed reading to cut background.

The target in test [2] is T2, human NMUR2 receptor. Put plainly: IP1 Gq HTRF assay, activation of human NMUR2 in human plasma. Details: expressed in transfected cells; host or cells: CHO-K1. The note with it: CHO-K1 cells expressing human NMUR2, 100% human plasma; read-out: EC50 (hNMUR2) human plasma. The essentials:
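EC50 obtained via 4-parameter sigmoidal regression of HTRF IP-One signal (665 nm/620 nm), which falls as intracellular IP1 rises. Stimulation: 1 h, 37° C, peptides in human plasma plus 50 mM LiCl, 1% DMSO final, on NMUR2-expressing CHO-K1 cells, 8 concentrations.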

Residues, ends and D or L forms follow the SMILES beside them. A value given as a limit tells only on which side of the number the result lay.

One may read the EC50 as the concentration needed to bring the measured effect to its halfway point.

T2 sequence (Q9GZQ4 whole entry): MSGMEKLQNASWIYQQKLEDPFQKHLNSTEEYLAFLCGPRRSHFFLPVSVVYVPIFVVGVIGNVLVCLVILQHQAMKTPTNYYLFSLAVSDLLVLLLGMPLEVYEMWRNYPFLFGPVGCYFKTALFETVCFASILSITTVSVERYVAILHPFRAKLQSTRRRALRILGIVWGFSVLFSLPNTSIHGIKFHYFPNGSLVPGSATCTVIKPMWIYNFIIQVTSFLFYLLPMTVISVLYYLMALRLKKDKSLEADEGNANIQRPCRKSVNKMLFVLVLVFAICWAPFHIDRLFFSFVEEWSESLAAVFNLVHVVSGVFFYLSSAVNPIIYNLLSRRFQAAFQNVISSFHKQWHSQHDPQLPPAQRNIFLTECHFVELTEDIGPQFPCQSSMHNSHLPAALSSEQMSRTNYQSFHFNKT

On to `CCCC[C@H](NC(=O)[C@H](CC(C)C)N(C)C(=O)[C@H](Cc1ccccc1)NC(=O)[C@H](Cc1ccc(O)cc1)NC(=O)CN1CCN(CCNC(=O)CN(C)C(=O)CN(C)C(=O)CN(C)C(=O)CN(C)C(=O)CN(C)C(=O)CN(C)C(=O)CN(C)C(=O)CN(C)C(=O)CN(C)C(=O)CN(C)C(=O)CN(C)C(=O)CN(C)C(=O)CN(C)C(=O)CN(C)C(=O)CN(C)C(=O)CC[C@H](NC(=O)CC[C@H](NC(=O)CC[C@H](NC(=O)CCCCCCCCCCCCCCCCCCC(=O)O)C(=O)O)C(=O)O)C(=O)O)CC1)C(=O)N[C@@H](CCCN)C(=O)NCCC(=O)N[C@@H](CCCNC(=N)N)C(=O)NCC(N)=O` [Compound 30, C20DA-gGlu3-Sar15-AEPipAc-Tyr-Phe-NMeLeu-Nle-Orn-bAla-Arg-Gly-NH2] (HELM PEPTIDE1{[O=C(O)CCCCCCCCCCCCCCCCCCC(=O)[*:2]].[gGlu].[gGlu].[gGlu].[Sar].[Sar].[Sar].[Sar].[Sar].[Sar].[Sar].[Sar].[Sar].[Sar].[Sar].[Sar].[Sar].[Sar].[Sar].[O=C(CN1CCN(CCN[*:1])CC1)[*:2]].Y.F.[meL].[Nle].[Orn].[bAla].R.G.[am]}$$$$V2.0), for which the results for the EC50 on human NMUR1 receptor, at human NMUR2 receptor [1] and on human NMUR2 receptor [2] were more than 1000 nM, 67 nM and 725 nM, respectively.
For `CCCC[C@H](NC(=O)[C@H](CC(C)C)N(C)C(=O)[C@H](Cc1ccccc1)NC(=O)[C@H](Cc1ccc(O)cc1)NC(=O)CN1CCN(CCNC(=O)CN(C)C(=O)CN(C)C(=O)CN(C)C(=O)CN(C)C(=O)CN(C)C(=O)CN(C)C(=O)CN(C)C(=O)CN(C)C(=O)CN(C)C(=O)CN(C)C(=O)CN(C)C(=O)CN(C)C(=O)CC[C@H](NC(=O)CC[C@H](NC(=O)CC[C@H](NC(=O)CC[C@H](NC(=O)CCCCCCCCCCCCCCCCCCC(=O)O)C(=O)O)C(=O)O)C(=O)O)C(=O)O)CC1)C(=O)N[C@@H](CCN)C(=O)N(C)[C@@H](C)C(=O)N[C@@H](CCCNC(=N)N)C(=O)NCC(N)=O` [Compound 31, C20DA-gGlu4-Sar12-AEPipAc-Tyr-Phe-NMeLeu-Nle-Dbu-NMeAla-Arg-Gly-NH2], in that order: more than 1000 nM, 3.7 nM and 14.6 nM.
As to `CCCC[C@H](NC(=O)[C@H](CC(C)C)N(C)C(=O)[C@H](Cc1ccccc1)NC(=O)[C@H](Cc1ccc(O)cc1)NC(=O)CN1CCN(CCNC(=O)CN(C)C(=O)CN(C)C(=O)CN(C)C(=O)CN(C)C(=O)CN(C)C(=O)CN(C)C(=O)CN(C)C(=O)CN(C)C(=O)CN(C)C(=O)CN(C)C(=O)CN(C)C(=O)CN(C)C(=O)CC[C@H](NC(=O)CC[C@H](NC(=O)CC[C@H](NC(=O)CC[C@H](NC(=O)CCCCCCCCCCCCCCCCCCC(=O)O)C(=O)O)C(=O)O)C(=O)O)C(=O)O)CC1)C(=O)N[C@@H](CCCCN)C(=O)N1CCC[C@H]1C(=O)N[C@@H](CCCNC(=N)N)C(=O)NCC(N)=O` [Compound 32, C20DA-gGlu4-Sar12-AEPipAc-Tyr-Phe-NMeLeu-Nle-Lys-Pro-Arg-Gly-NH2], the EC50 was found to be 1200 nM on human NMUR1 receptor, 6.5 nM at human NMUR2 receptor [1] and 31.2 nM at human NMUR2 receptor [2].
Turning to `CCCC[C@H](NC(=O)[C@H](CC(C)C)N(C)C(=O)[C@H](Cc1ccccc1)NC(=O)[C@H](Cc1ccc(O)cc1)NC(=O)CN1CCN(CCNC(=O)CN(C)C(=O)CN(C)C(=O)CN(C)C(=O)CN(C)C(=O)CN(C)C(=O)CN(C)C(=O)CN(C)C(=O)CN(C)C(=O)CN(C)C(=O)CN(C)C(=O)CN(C)C(=O)CN(C)C(=O)CN(C)C(=O)CN(C)C(=O)CN(C)C(=O)CC[C@H](NC(=O)CC[C@H](NC(=O)CC[C@H](NC(=O)CCCCCCCCCCCCCCCCCCC(=O)O)C(=O)O)C(=O)O)C(=O)O)CC1)C(=O)N[C@@H](CCCN)C(=O)N(C)[C@@H](C)C(=O)N[C@@H](CCCNC(=N)N)C(=O)NCC(N)=O` [Compound 34, C20DA-gGlu3-Sar15-AEPipAc-Tyr-Phe-NMeLeu-Nle-Orn-NMeAla-Arg-Gly-NH2] (HELM PEPTIDE1{[O=C(O)CCCCCCCCCCCCCCCCCCC(=O)[*:2]].[gGlu].[gGlu].[gGlu].[Sar].[Sar].[Sar].[Sar].[Sar].[Sar].[Sar].[Sar].[Sar].[Sar].[Sar].[Sar].[Sar].[Sar].[Sar].[O=C(CN1CCN(CCN[*:1])CC1)[*:2]].Y.F.[meL].[Nle].[Orn].[meA].R.G.[am]}$$$$V2.0), the EC50 on human NMUR1 receptor was more than 1000 nM; on human NMUR2 receptor [1], 9 nM; on human NMUR2 receptor [2] it was 24.6 nM.
Take `CCCC[C@H](NC(=O)[C@H](CC(C)C)N(C)C(=O)[C@H](Cc1ccccc1)NC(=O)[C@H](Cc1ccc(O)cc1)NC(=O)CN1CCN(CCNC(=O)CN(C)C(=O)CN(C)C(=O)CN(C)C(=O)CN(C)C(=O)CN(C)C(=O)CN(C)C(=O)CN(C)C(=O)CN(C)C(=O)CN(C)C(=O)CN(C)C(=O)CN(C)C(=O)CN(C)C(=O)CC[C@H](NC(=O)CC[C@H](NC(=O)CC[C@H](NC(=O)CCCCCCCCCCCCCCCCC(=O)O)C(=O)O)C(=O)O)C(=O)O)CC1)C(=O)N(C)[C@@H](CCCNC(=N)N)C(=O)N1CCC[C@H]1C(=O)N[C@@H](CCCNC(=N)N)C(=O)NCC(N)=O` [Compound 35, C18DA-gGlu3-Sar12-AEPipAc-Tyr-Phe-NMeLeu-Nle-NMeArg-Pro-Arg-Gly-NH2]: the EC50 on human NMUR1 receptor was found to be 190 nM; at human NMUR2 receptor [1], 1.5 nM; at human NMUR2 receptor [2] it was 9.4 nM.
On the same counts, the results for `CCCC[C@H](NC(=O)[C@H](CC(C)C)N(C)C(=O)[C@H](Cc1ccccc1)NC(=O)[C@H](Cc1ccc(O)cc1)NC(=O)CN1CCN(CCNC(=O)CN(C)C(=O)CN(C)C(=O)CN(C)C(=O)CN(C)C(=O)CN(C)C(=O)CN(C)C(=O)CN(C)C(=O)CN(C)C(=O)CN(C)C(=O)CN(C)C(=O)CN(C)C(=O)CN(C)C(=O)CN(C)C(=O)CN(C)C(=O)CN(C)C(=O)CC[C@H](NC(=O)CC[C@H](NC(=O)CC[C@H](NC(=O)CCCCCCCCCCCCCCCCCCC(=O)O)C(=O)O)C(=O)O)C(=O)O)CC1)C(=O)N(C)[C@@H](CCCNC(=N)N)C(=O)N(C)[C@@H](C)C(=O)N[C@@H](CCCNC(=N)N)C(=O)NCC(N)=O` [Compound 36, C20DA-gGlu3-Sar15-AEPipAc-Tyr-Phe-NMeLeu-Nle-NMeArg-NMeAla-Arg-Gly-NH2] (HELM PEPTIDE1{[O=C(O)CCCCCCCCCCCCCCCCCCC(=O)[*:2]].[gGlu].[gGlu].[gGlu].[Sar].[Sar].[Sar].[Sar].[Sar].[Sar].[Sar].[Sar].[Sar].[Sar].[Sar].[Sar].[Sar].[Sar].[Sar].[O=C(CN1CCN(CCN[*:1])CC1)[*:2]].Y.F.[meL].[Nle].[meR].[meA].R.G.[am]}$$$$V2.0) are 1400 nM, 4.7 nM and 18.3 nM.
On the same counts, the results for `CCCC[C@H](NC(=O)[C@H](CC(C)C)N(C)C(=O)[C@H](Cc1ccccc1)NC(=O)[C@H](Cc1ccc(O)cc1)NC(=O)CN1CCN(CCNC(=O)CN(C)C(=O)CN(C)C(=O)CN(C)C(=O)CN(C)C(=O)CN(C)C(=O)CN(C)C(=O)CN(C)C(=O)CN(C)C(=O)CN(C)C(=O)CN(C)C(=O)CN(C)C(=O)CN(C)C(=O)CC[C@H](NC(=O)CC[C@H](NC(=O)CC[C@H](NC(=O)CCCCCCCCCCCCCCCCC(=O)O)C(=O)O)C(=O)O)C(=O)O)CC1)C(=O)N(C)[C@@H](CCCNC(=N)N)C(=O)N(C)[C@@H](C)C(=O)N[C@@H](CCCNC(=N)N)C(=O)NCC(N)=O` [Compound 37, C18DA-gGlu3-Sar12-AEPipAc-Tyr-Phe-NMeLeu-Nle-NMeArg-NMeAla-Arg-Gly-NH2] are 1300 nM, 3.5 nM and 27.1 nM.

These data come from patent publication US20240279278A1, “NMU RECEPTOR 2 AGONISTS” (Boehringer Ingelheim International GmbH, priority 2023, published 2024).
